In PubChem BioAssay (NCI):
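Grown in 96-well plates, cells were treated for 48 hours with each compound at five concentrations. Insufficient inhibition: endpoint recorded as highest concentration tested. GI50: concentration for 50% inhibition of growth. The concentration for full growth arrest is given as TGI.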

Tests used:
Assay in all cases: NCI-60 cell line screen, 48 h
[1] = system: HOP-92 NSCLC
[2] = system: LOX IMVI melanoma
[3] = system: RPMI-8226 leukemia
[4] = system: HOP-62 NSCLC
[5] = system: NCI-H226 lung
[6] = system: NCI/ADR-RES ovarian
[7] = system: PC-3 prostate
[8] = system: SF-295 CNS
[9] = system: HS 578T breast
[10] = system: MALME-3M melanoma
[11] = system: NCI-H522 lung
[12] = system: M14 melanoma
[13] = system: COLO 205 colon
[14] = system: A549 NSCLC
[15] = system: SK-MEL-2 melanoma
[16] = system: CCRF-CEM leukemia
[17] = system: A498 renal
[18] = system: SW-620 colon
[19] = system: HL-60(TB) leukemia
[20] = system: TK-10 renal
[21] = system: OVCAR-5 ovarian
[22] = system: CAKI-1 renal
[23] = system: SF-268 CNS
[24] = system: OVCAR-3 ovarian
[25] = system: SK-MEL-5 melanoma
[26] = system: BT-549 breast
[27] = system: KM12 colon
[28] = system: SNB-75 CNS
[29] = system: SR leukemia
[30] = system: HCT-116 colon
[31] = system: RXF 393 renal
[32] = system: MOLT-4 leukemia
[33] = system: MCF7 breast
[34] = system: MDA-MB-231 breast
[35] = system: OVCAR-8 ovarian
[36] = system: HCT-15 colon
[37] = system: SF-539 CNS
[38] = system: SN12C renal
[39] = system: ACHN renal
[40] = system: HCC-2998 colon
[41] = system: NCI-H460 lung
[42] = system: MDA-MB-435
[43] = system: U251 CNS
[44] = system: T-47D breast
[45] = system: HT29 colon
[46] = system: SK-OV-3 ovarian
[47] = system: SK-MEL-28 melanoma
[48] = system: NCI-H23 lung
[49] = system: DU-145 prostate
[50] = system: UACC-62 melanoma
[51] = system: SNB-19 CNS
[52] = system: K-562 leukemia
[53] = system: UACC-257 melanoma
[54] = system: OVCAR-4 ovarian
[55] = system: 786-0 renal
[56] = system: IGROV1 ovarian
[57] = system: UO-31 renal

Q: How did the GI50 [1] turn out when `COc1cc(-c2cc(/C=C3\C(=O)Nc4cc(Cl)ccc43)[nH]n2)cc(OC)c1OC` was run?
A: The GI50 was 1.77 µM.

Q: What about the TGI [1] of the same compound?
A: Its TGI is 8.89 µM.

Q: And the GI50 [2]?
A: The GI50 was 1.81 µM.

Q: And the TGI [2]?
A: Its TGI is 4.06 µM.

Q: What about the GI50 [3] of the same compound?
A: The GI50 was 2.02 µM.

Q: What about the TGI [3] of the same compound?
A: Its TGI is 4.92 µM.

Q: What about the GI50 [4] of the same compound?
A: The GI50 was 2.16 µM.

Q: And the TGI [4]?
A: The TGI was 6.46 µM.

Q: And the GI50 [5]?
A: The GI50 was 2.29 µM.

Q: What about the TGI [5] of the same compound?
A: Its TGI is 7.94 µM.

Q: And the GI50 [6]?
A: The GI50 was 2.74 µM.

Q: What about the TGI [6] of the same compound?
A: The TGI was 7.49 µM.

Q: What about the GI50 [7] of the same compound?
A: Its GI50 is 2.25 µM.

Q: What about the TGI [7] of the same compound?
A: The TGI was 7.83 µM.

Q: And the GI50 [8]?
A: Its GI50 is 2.84 µM.

Q: What about the TGI [8] of the same compound?
A: The TGI was 8.89 µM.

Q: And the GI50 [9]?
A: Its GI50 is 2.74 µM.

Q: And the TGI [9]?
A: The TGI was 9.31 µM.

Q: And the GI50 [10]?
A: Its GI50 is 2.71 µM.

Q: What about the TGI [10] of the same compound?
A: Its TGI is 6.96 µM.

Q: What about the GI50 [11] of the same compound?
A: The GI50 was 2.4 µM.

Q: And the TGI [11]?
A: The TGI was 6.09 µM.

Q: And the GI50 [12]?
A: Its GI50 is 2.42 µM.

Q: What about the TGI [12] of the same compound?
A: The TGI was 6.99 µM.

Q: What about the GI50 [13] of the same compound?
A: Its GI50 is 1.93 µM.

Q: And the TGI [13]?
A: Its TGI is 4.36 µM.

Q: And the GI50 [14]?
A: Its GI50 is 3.23 µM.

Q: What about the TGI [14] of the same compound?
A: The TGI was 15 µM.

Q: What about the GI50 [15] of the same compound?
A: Its GI50 is 2.75 µM.

Q: What about the TGI [15] of the same compound?
A: The TGI was 7.5 µM.

Q: What about the GI50 [16] of the same compound?
A: The GI50 was 2.63 µM.

Q: And the TGI [16]?
A: The TGI was 8.43 µM.

Q: What about the GI50 [17] of the same compound?
A: Its GI50 is 2.24 µM.

Q: What about the TGI [17] of the same compound?
A: Its TGI is 8.22 µM.

Q: And the GI50 [18]?
A: The GI50 was 2.87 µM.

Q: And the TGI [18]?
A: The TGI was 14.9 µM.

Q: What about the GI50 [19] of the same compound?
A: Its GI50 is 2.45 µM.

Q: What about the TGI [19] of the same compound?
A: The TGI was 7.59 µM.

Q: What about the GI50 [20] of the same compound?
A: Its GI50 is 5.95 µM.

Q: What about the TGI [20] of the same compound?
A: The TGI was 32.3 µM.

Q: And the GI50 [21]?
A: Its GI50 is 4.27 µM.

Q: And the TGI [21]?
A: Its TGI is 78.1 µM.

Q: What about the GI50 [22] of the same compound?
A: The GI50 was 2.71 µM.

Q: What about the TGI [22] of the same compound?
A: Its TGI is 22.5 µM.

Q: And the GI50 [23]?
A: Its GI50 is 3.36 µM.

Q: And the TGI [23]?
A: The TGI was 29.1 µM.

Q: What about the GI50 [24] of the same compound?
A: The GI50 was 2.74 µM.

Q: And the TGI [24]?
A: The TGI was 15.1 µM.

Q: And the GI50 [25]?
A: Its GI50 is 1.43 µM.

Q: What about the TGI [25] of the same compound?
A: The TGI was 2.79 µM.

Q: What about the GI50 [26] of the same compound?
A: The GI50 was 2.54 µM.

Q: What about the TGI [26] of the same compound?
A: Its TGI is 7.58 µM.

Q: What about the GI50 [27] of the same compound?
A: The GI50 was 2.27 µM.

Q: What about the TGI [27] of the same compound?
A: Its TGI is 6.93 µM.

Q: What about the GI50 [28] of the same compound?
A: The GI50 was 1.87 µM.

Q: And the TGI [28]?
A: The TGI was 8.17 µM.

Q: What about the GI50 [29] of the same compound?
A: The GI50 was 2.33 µM.

Q: What about the TGI [29] of the same compound?
A: Its TGI is 5.66 µM.

Q: And the GI50 [30]?
A: Its GI50 is 2.74 µM.

Q: What about the TGI [30] of the same compound?
A: Its TGI is 10.3 µM.

Q: And the GI50 [31]?
A: Its GI50 is 5.66 µM.

Q: What about the TGI [31] of the same compound?
A: Its TGI is 42 µM.

Q: What about the GI50 [32] of the same compound?
A: Its GI50 is 2.48 µM.

Q: And the TGI [32]?
A: The TGI was 6.43 µM.

Q: And the GI50 [33]?
A: The GI50 was 2.26 µM.

Q: And the TGI [33]?
A: The TGI was 6.39 µM.

Q: And the GI50 [34]?
A: Its GI50 is 3.14 µM.

Q: And the TGI [34]?
A: Its TGI is greater than 100 µM.

Q: And the GI50 [35]?
A: Its GI50 is 2.17 µM.

Q: What about the TGI [35] of the same compound?
A: Its TGI is 5.32 µM.

Q: What about the GI50 [36] of the same compound?
A: Its GI50 is 2.59 µM.

Q: What about the TGI [36] of the same compound?
A: The TGI was 7.77 µM.

Q: And the GI50 [37]?
A: Its GI50 is 3.92 µM.

Q: And the TGI [37]?
A: The TGI was 21.8 µM.

Q: And the GI50 [38]?
A: Its GI50 is 2.68 µM.

Q: And the TGI [38]?
A: The TGI was 14.2 µM.

Q: What about the GI50 [39] of the same compound?
A: Its GI50 is 3.48 µM.

Q: And the TGI [39]?
A: Its TGI is 25.6 µM.

Q: And the GI50 [40]?
A: The GI50 was 7.42 µM.

Q: What about the TGI [40] of the same compound?
A: Its TGI is greater than 100 µM.

Q: What about the GI50 [41] of the same compound?
A: Its GI50 is 2.1 µM.

Q: What about the TGI [41] of the same compound?
A: Its TGI is 4.9 µM.

Q: And the GI50 [42]?
A: The GI50 was 1.96 µM.

Q: What about the TGI [42] of the same compound?
A: The TGI was 4.18 µM.

Q: What about the GI50 [43] of the same compound?
A: Its GI50 is 2.84 µM.

Q: What about the TGI [43] of the same compound?
A: Its TGI is 14.8 µM.

Q: What about the GI50 [44] of the same compound?
A: The GI50 was 2.13 µM.

Q: And the TGI [44]?
A: Its TGI is 6.79 µM.

Q: What about the GI50 [45] of the same compound?
A: The GI50 was 3.46 µM.

Q: What about the TGI [45] of the same compound?
A: The TGI was 18.6 µM.

Q: And the GI50 [46]?
A: The GI50 was 3.29 µM.

Q: And the TGI [46]?
A: Its TGI is 25.1 µM.

Q: What about the GI50 [47] of the same compound?
A: Its GI50 is 3.91 µM.

Q: What about the TGI [47] of the same compound?
A: Its TGI is 26.4 µM.

Q: What about the GI50 [48] of the same compound?
A: Its GI50 is 3.84 µM.

Q: And the TGI [48]?
A: Its TGI is 18.1 µM.

Q: What about the GI50 [49] of the same compound?
A: The GI50 was 3.46 µM.

Q: What about the TGI [49] of the same compound?
A: Its TGI is 14.5 µM.

Q: And the GI50 [50]?
A: Its GI50 is 1.76 µM.

Q: And the TGI [50]?
A: Its TGI is 4.3 µM.

Q: What about the GI50 [51] of the same compound?
A: Its GI50 is 3.45 µM.

Q: What about the TGI [51] of the same compound?
A: Its TGI is greater than 100 µM.

Q: And the GI50 [52]?
A: Its GI50 is 2.82 µM.

Q: What about the TGI [52] of the same compound?
A: The TGI was 22.6 µM.

Q: And the GI50 [53]?
A: Its GI50 is 2.43 µM.

Q: And the TGI [53]?
A: The TGI was 6.13 µM.

Q: And the GI50 [54]?
A: The GI50 was 2.91 µM.

Q: And the TGI [54]?
A: Its TGI is 15 µM.

Q: And the GI50 [55]?
A: The GI50 was 14.4 µM.

Q: What about the TGI [55] of the same compound?
A: The TGI was 60.1 µM.

Q: What about the GI50 [56] of the same compound?
A: Its GI50 is 3.45 µM.

Q: What about the TGI [56] of the same compound?
A: Its TGI is 37.2 µM.

Q: And the GI50 [57]?
A: Its GI50 is 2.66 µM.

Q: And the TGI [57]?
A: Its TGI is 15.6 µM.
